Values quoted from earlier work as cited in patent US20020103240A1, “Process for resolution of 2-amino-6-propylamino-4,5,6,7-tetrahydrobenzthiazole and compounds therefor” (priority 2000, published 2002).

Conditions: (S) isomer compared with (R) enantiomer; no test described

## CCCN[C@H]1CCc2nc(N)sc2C1 [pramipexole, (S)-2-amino-6-propylamino-4,5,6,7-tetrahydrobenzothiazole]
  dopaminergic activity of the (S) isomer relative to the (R) enantiomer: twice as high
